The values that follow come from patent US20040127416A1, “Therapeutic bioconjugates” (priority 2002, published 2004).

Ends that are not written are not given here. glycidyl methacrylate‑derivatized dextran = not defined here

Assay [1] has as its system TNF-α stimulated, ICAM-expressing BECs. The assay can be described thus: inflammatory cell adhesion assay: U937 monocyte adhesion to TNF-α stimulated bovine endothelial cell monolayers. It is filed as cell-based. Conditions: U937 cells on TNF-α stimulated. The protocol: This experiment illustrates the activity of the bioconjugate, whose synthesis was described above, in the inflammatory cell adhesion assay. Bovine endothelial cell (BEC) monolayers were established in 24-well culture dishes. At 24 h prior to the assay, normal medium (Minimal Eagle's Medium with 10% fetal bovine serum, 1% ABAM and 1% L-glutamine) (Gibco, CA, USA) was replaced with medium containing tumor necrosis factor α (TNF-α, 10 ng/ml). Following the 24 h incubation period, each sample well received a medium change.
Treated sample groups received medium containing 6% dextran bioconjugate or 6% bioconjugate. […] Two other control treatments were given: a medium change with no dextran or peptide was given to a sample group pretreated with TNF-α, and a positive control that was not pretreated with TNF-α. After a 30-minute incubation period, the medium in all wells was replaced with medium containing the human monocyte cell line U937 (1×10^5/ml) (ATCC, Manassas, Va.). All samples were incubated for another 30 minutes, then washed three times with PBS to remove non-adherent cells. The average number of adherent cells per 100× microscopic field was determined for each sample group.

In another assay the test system is inflammatory HUVECs. The assay can be described thus: in vitro ICAM-1-mediated leukocyte cell adhesion assay: U937 adhesion to TNF-α treated HUVEC monolayers. Conditions: TNF-α (10 ng/ml, 24 h) treated HUVECs; medium containing 6% dextran bioconjugate, 30 min; n=4 wells. It is filed as cell-based, human. The protocol:
To assess the effect of these peptide-dextran bioconjugates on inflammatory cell adhesion, the following in vitro ICAM-1-mediated leukocyte cell adhesion assay was performed. HUVEC monolayers were established in 24-well culture dishes. At 24 h prior to the assay, normal culture media were replaced with medium containing TNF-α (10 ng/ml). Following the 24 h incubation period, each sample well received a medium change. Treated sample groups received medium containing 6% dextran bioconjugate (dextran conjugated to the A domain peptide CNAFKILVVITDGEK). Untreated control samples received normal medium. Negative sham control samples received medium containing dextran conjugate with a scrambled A domain sequence (KCENGADFTKIIVLV). All samples were then incubated for 30 min prior to the adhesion assay. Medium was removed from all wells following the 30 min incubation and replaced with medium containing U937 monocytic cells (1×10^5/ml). All samples were then incubated for another 30 min. After this incubation period, samples were washed three times with PBS to remove non-adherent monocytes. The samples were then fixed, and an average number of adherent monocytes per 100× microscopic field was determined for each sample group. Statistical comparisons between sample groups (n=4 replicate wells per group) were performed using a student's t-test.

Assay [2] concerns the target T1, ICAM-1 expressed on TNF-alpha stimulated bovine endothelial cells (BEC) (bovine, UniProt Q95132 28-535).
T1 sequence (looked up): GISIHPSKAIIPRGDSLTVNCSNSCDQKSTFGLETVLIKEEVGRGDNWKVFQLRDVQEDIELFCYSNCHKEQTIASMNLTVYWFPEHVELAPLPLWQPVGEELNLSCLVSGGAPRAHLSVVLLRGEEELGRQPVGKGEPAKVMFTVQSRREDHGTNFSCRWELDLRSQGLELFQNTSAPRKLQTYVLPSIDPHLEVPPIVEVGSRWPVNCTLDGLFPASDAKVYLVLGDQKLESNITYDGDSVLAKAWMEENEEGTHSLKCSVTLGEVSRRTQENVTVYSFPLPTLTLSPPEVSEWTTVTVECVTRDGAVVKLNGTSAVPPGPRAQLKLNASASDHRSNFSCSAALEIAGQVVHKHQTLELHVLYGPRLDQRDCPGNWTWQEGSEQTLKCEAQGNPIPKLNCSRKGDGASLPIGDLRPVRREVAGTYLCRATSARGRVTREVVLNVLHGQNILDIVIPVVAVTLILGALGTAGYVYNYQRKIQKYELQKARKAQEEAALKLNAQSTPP
The assay can be described thus: cell-based or functional assay.

Regarding “CTVDLKFGIKNIEAV [inactive peptide, reference compound]”, in assay [1], the “effect on monocyte adhesion (in words)” value was “comparable to no treatment after the TNF-α activation”.

With “active peptide conjugate: methacroylated dextran (about 70 kD) coupled to synthetic peptide CNAFKILVVITDGEK, based on the ICAM-1-binding portion of integrin αmβ2 (CD11b/CD18) (also: coupled to methacroylated dextran (about 70 kD), site not given here)”, the “effect on monocyte adhesion (in words)” value in assay [1] (listed as active dextran bioconjugate) is listed as “prevented monocyte adhesion to the extent observed in non-stimulated BECS”; in assay [1] (listed as bioconjugate), “reducing monocyte adhesion to levels observed in control, non-stimulated cells”. Also, the “U937 cell adhesion reduced by” value in the assay with inflammatory HUVECs turned out to be 87.7%.

Take “inactive peptide conjugate: dextran bioconjugate containing an inactive scrambled sequence of the A-domain peptide, CTVDLKFGIKNIEAV; sham control (also: conjugated to dextran, attachment site not given here) [reference compound]”: the “effect on monocyte adhesion (in words)” value in assay [1] is on record as “inhibited cell adhesion poorly”.

B1: synthetic peptide CNAFKILVVITDGEK, unconjugated (peptide)
peptide: CNAFKILVVITDGEK
B1: in assay [2], the “relative monocyte adherence (U937 cells on TNF-alpha activated BEC; negative control = 100%)” value amounted to 56.3%.

B2: inactive scrambled peptide CTVDLKFGIKNIEAV, unconjugated (peptide)
peptide: CTVDLKFGIKNIEAV
B2: the “relative monocyte adherence (U937 cells on TNF-alpha activated BEC; negative control = 100%)” value in assay [2] is 95.7%.

B3: dextran bioconjugate containing the inactive scrambled A-domain peptide CTVDLKFGIKNIEAV (peptide)
peptide: CTVDLKFGIKNIEAV
modifications: not fully specified (residue 1); also: Cys sulfhydryl coupled to glycidyl methacrylate-derivatized dextran (about 70 kD)
For the molecule B3, the “relative monocyte adherence (U937 cells on TNF-alpha activated BEC; negative control = 100%)” value in assay [2] is 55.6%.

B4: dextran/peptide bioconjugate: synthetic A domain peptide CNAFKILVVITDGEK coupled to methacroylated (activated) dextran (peptide)
peptide: C(glycidyl methacrylate‑derivatized dextran)NAFKILVVITDGEK
modifications: reading uncertain; also: polyvalent conjugate on dextran, peptides per dextran not given here
With B4, the “relative monocyte adherence (U937 cells on TNF-alpha activated BEC; negative control = 100%)” value in assay [2] was 3.34%.
